{"source": "ChEMBL document CHEMBL1201862", "about": "“PubChem BioAssay data set” (2004)", "key": {"Ion channel NompC": {"target": "Ion channel NompC (Danio rerio, UniProt Q7T1G6)", "sequence (Q7T1G6 whole entry)": "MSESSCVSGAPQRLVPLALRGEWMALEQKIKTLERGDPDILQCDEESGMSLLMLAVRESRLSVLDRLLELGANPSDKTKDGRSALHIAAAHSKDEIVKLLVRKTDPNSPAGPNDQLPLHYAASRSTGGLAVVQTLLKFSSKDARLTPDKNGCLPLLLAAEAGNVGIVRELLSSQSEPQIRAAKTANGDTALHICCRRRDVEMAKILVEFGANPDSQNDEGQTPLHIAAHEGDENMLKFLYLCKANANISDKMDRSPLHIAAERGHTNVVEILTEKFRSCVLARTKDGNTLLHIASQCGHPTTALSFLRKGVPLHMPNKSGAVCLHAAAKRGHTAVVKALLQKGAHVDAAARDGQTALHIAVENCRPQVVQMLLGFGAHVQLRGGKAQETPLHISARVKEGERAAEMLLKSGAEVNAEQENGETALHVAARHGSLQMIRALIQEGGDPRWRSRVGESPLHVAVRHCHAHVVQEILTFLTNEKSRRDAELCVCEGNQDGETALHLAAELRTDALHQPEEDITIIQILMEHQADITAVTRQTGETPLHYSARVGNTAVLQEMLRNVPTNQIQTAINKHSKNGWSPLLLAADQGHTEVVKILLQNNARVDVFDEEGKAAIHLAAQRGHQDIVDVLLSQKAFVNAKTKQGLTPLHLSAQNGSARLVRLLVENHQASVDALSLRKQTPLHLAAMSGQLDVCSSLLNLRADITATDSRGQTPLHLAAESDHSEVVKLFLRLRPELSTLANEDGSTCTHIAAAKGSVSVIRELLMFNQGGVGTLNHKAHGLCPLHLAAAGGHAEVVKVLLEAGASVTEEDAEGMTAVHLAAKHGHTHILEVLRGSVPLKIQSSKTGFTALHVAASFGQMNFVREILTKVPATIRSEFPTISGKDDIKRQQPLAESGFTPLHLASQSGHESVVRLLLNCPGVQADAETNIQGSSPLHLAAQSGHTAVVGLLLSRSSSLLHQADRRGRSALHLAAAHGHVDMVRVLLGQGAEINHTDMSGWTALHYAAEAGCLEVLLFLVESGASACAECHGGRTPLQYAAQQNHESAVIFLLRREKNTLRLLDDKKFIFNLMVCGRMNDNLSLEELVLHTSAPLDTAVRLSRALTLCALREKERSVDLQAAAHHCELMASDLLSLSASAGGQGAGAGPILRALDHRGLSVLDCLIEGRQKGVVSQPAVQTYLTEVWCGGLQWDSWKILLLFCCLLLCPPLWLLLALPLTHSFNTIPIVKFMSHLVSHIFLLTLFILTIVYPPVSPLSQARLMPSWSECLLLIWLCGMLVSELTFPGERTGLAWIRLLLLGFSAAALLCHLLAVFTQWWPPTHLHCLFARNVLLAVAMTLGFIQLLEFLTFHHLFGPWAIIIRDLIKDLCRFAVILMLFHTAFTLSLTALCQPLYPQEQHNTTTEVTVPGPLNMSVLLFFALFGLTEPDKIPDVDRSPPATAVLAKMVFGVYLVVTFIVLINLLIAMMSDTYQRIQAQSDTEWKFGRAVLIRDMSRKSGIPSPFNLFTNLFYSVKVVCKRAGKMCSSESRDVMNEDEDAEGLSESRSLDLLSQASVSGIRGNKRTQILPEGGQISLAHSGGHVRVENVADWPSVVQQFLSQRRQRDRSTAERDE", "assay": "Dose response cell-based high-throughput screening assay for agonists of the transient receptor potential channel N1 (TRPN1). [Related pubchem assays (depositor defined):AID1424, AID1448]", "format": "functional"}, "Mucolipin-3": {"target": "T1, Mucolipin-3 (Homo sapiens, UniProt Q8TDD5)", "T1 sequence (Q8TDD5 whole entry)": "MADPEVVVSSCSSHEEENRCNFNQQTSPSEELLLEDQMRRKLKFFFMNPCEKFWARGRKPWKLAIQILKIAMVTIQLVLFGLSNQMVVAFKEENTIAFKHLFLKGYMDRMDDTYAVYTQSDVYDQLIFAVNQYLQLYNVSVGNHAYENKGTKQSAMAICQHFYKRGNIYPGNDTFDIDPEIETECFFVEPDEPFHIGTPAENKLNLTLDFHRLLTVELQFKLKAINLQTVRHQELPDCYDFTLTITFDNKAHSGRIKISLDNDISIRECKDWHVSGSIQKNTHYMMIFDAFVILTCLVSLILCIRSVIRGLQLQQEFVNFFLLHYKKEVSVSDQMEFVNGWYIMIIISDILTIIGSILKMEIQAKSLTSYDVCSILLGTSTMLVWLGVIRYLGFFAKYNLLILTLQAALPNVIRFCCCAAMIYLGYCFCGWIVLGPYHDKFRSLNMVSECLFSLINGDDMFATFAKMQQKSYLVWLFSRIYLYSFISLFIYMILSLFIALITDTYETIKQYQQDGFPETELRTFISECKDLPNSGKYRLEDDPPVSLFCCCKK", "assay": "Fluorescence counterscreen assay for […] agonists: dose response cell-based high-throughput screening assay to identify agonists of the transient receptor potential channel ML3 (TRPML3). [Related pubchem assays: 1424, 1448 ]", "format": "functional"}, "[1]": {"target": "T2, Runt-related transcription factor 1/Core-binding factor subunit beta (Homo sapiens, UniProt Q01196+Q13951)", "T2 sequence (Q01196 whole entry, the tested form may be a part)": "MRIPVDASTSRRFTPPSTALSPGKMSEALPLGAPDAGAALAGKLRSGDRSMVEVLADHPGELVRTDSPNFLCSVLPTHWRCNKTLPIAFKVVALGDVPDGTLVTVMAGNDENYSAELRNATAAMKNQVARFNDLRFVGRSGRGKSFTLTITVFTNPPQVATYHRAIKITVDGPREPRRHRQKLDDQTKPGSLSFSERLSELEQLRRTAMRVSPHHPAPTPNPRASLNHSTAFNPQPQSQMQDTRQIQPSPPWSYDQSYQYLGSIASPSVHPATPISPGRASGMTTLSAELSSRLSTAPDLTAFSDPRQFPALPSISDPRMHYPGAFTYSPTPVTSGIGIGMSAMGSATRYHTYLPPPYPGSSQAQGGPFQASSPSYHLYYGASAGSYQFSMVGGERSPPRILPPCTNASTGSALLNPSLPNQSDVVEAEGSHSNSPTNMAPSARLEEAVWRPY", "T2 sequence (Q13951 whole entry, the tested form may be a part)": "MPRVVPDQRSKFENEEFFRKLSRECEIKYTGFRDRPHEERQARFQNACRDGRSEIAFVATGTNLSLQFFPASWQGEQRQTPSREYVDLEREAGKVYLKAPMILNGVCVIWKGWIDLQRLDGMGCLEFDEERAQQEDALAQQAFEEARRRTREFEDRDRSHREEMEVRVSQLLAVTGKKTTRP", "assay": "inhibitors of RUNX1 Runt–CBFb-SMMHC binding, primary screen, biochemical, FRET, Cerulean-Runt, Venus-CBFb-SMMHC, uHTS (AID 1434);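 also: partner is the CBFb-SMMHC leukemia fusion protein rather than wild-type CBFb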", "format": "protein assay"}, "[2]": {"target": "T2, Runt-related transcription factor 1/Core-binding factor subunit beta", "assay": "inhibitors of RUNX1 Runt–CBFb-SMMHC binding, biochemical, TR-FRET (AID 1438)", "format": "protein assay"}, "CAAX prenyl protease 2": {"target": "CAAX prenyl protease 2 (Saccharomyces cerevisiae S288c, UniProt Q03530)", "sequence (Q03530 whole entry)": "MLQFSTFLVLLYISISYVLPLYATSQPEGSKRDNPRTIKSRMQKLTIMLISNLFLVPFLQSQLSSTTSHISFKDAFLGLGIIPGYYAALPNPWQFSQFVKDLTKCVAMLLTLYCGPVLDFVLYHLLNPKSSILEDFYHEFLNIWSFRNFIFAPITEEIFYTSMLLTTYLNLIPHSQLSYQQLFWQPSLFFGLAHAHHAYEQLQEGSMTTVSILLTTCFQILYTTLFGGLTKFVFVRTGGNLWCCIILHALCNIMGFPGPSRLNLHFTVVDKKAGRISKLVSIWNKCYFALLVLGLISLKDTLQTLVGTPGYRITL", "format": "biochemical"}, "BJ [3]": {"test_system": "BJ", "assay": "cytotoxicity toward BJ-TERT fibroblasts, dose response, cell-based, RAS-independent, luminescence (AID 1933)", "format": "functional", "details": "Homo sapiens"}, "Protein RecA": {"target": "T3, Protein RecA (Mycobacterium tuberculosis, UniProt P9WHJ3)", "T3 sequence (P9WHJ3 whole entry)": "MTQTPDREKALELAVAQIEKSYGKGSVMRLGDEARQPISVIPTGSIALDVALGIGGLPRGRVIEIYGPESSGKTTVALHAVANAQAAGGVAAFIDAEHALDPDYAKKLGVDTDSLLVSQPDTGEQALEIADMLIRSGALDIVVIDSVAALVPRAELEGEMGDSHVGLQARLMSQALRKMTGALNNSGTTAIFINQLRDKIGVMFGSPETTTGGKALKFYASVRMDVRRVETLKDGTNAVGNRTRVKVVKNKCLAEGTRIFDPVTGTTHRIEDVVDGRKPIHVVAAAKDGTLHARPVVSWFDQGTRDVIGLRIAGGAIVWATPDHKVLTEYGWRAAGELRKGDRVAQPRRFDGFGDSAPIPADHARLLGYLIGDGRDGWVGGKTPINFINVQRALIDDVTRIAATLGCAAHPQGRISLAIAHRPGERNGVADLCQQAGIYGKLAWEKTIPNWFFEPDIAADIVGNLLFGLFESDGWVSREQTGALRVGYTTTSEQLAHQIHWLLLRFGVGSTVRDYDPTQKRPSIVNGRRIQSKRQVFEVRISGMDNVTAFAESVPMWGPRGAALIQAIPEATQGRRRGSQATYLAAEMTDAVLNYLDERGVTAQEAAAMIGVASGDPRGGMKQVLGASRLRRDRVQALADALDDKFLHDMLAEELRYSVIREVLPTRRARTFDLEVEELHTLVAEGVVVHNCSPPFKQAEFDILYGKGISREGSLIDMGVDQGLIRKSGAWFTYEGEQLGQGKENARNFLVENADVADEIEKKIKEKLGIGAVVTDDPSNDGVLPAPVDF", "assay": "Fluorescence Cell-Free Homogeneous Dose Retest to Identify Inhibitors of RecA-Intein Splicing Activity. [Related pubchem assays (depositor defined):AID2097, AID2223, AID489010, AID492950]", "format": "functional"}, "[4]": {"target": "T4, Replicative DNA helicase DnaB (Mycobacterium tuberculosis, UniProt P9WMR3)", "T4 sequence (P9WMR3 whole entry)": "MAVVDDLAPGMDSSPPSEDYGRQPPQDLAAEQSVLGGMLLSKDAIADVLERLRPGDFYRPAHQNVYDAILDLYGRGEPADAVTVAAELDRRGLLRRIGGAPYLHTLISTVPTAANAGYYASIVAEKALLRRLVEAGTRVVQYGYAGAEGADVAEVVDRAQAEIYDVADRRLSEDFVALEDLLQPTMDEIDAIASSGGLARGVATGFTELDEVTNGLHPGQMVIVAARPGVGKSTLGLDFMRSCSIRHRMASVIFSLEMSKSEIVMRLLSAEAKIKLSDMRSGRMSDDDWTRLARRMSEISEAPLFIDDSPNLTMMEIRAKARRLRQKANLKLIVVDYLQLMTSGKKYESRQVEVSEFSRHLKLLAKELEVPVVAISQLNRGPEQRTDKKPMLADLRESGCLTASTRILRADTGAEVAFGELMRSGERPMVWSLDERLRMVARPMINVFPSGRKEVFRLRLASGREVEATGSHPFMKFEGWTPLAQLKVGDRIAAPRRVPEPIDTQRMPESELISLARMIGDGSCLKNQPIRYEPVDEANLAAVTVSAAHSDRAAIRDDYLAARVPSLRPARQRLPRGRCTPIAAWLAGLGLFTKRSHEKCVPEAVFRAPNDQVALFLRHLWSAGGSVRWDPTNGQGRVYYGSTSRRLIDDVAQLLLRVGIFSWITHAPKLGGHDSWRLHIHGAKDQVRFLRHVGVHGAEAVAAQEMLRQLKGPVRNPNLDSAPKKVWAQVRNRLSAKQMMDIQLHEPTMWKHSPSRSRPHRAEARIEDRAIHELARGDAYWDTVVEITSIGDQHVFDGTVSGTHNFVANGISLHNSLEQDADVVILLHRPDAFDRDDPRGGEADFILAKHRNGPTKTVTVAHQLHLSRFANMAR", "assay": "DnaB intein splicing inhibitors, dose response, biochemical, cell-free fluorescence (AID 449749)", "format": "functional"}, "BJ [5]": {"test_system": "BJ", "assay": "cytotoxicity toward BJ-TERT-LT-ST fibroblasts, dose response, cell-based, RAS-independent, luminescence (AID 1935);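 also: BJ fibroblasts immortalized with TERT plus LT and ST oncogenes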", "format": "functional", "details": "Homo sapiens"}, "BJ [6]": {"test_system": "BJ", "assay": "cells", "format": "functional, cell-based", "details": "Homo sapiens"}, "[7]": {"assay": "growth suppression of PTEN-null colon cells, dose response, cell-based, HCT116 PTEN knockout (AID 1047);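 also: HCT116 colon tumor cells with PTEN knocked out; cells exposed to compound for 60 hours before readout; potency for loss of cell viability measured by luminescence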", "format": "functional"}, "[8]": {"assay": "HEp-2 cell cytotoxicity, dose response, cytotoxicity control for RSV inhibitor project, HTS (AID 2410)", "format": "functional", "details": "human respiratory syncytial virus"}, "[9]": {"assay": "growth suppression of beta-catenin-knockout colon cells, dose response, cell-based, HCT116, human colon tumor (AID 1045);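 also: HCT116 colon tumor cells with beta catenin knocked out; cells exposed to compound for 60 hours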", "format": "functional"}, "[10]": {"assay": "cytotoxicity toward DRD oncogenic fibroblasts, dose response, cell-based, non-viral oncogenic, luminescence (AID 1934)", "format": "functional", "details": "Homo sapiens"}, "[11]": {"target": "Signal transducer and activator of transcription 3 (Homo sapiens, UniProt P40763)", "sequence (P40763 whole entry)": "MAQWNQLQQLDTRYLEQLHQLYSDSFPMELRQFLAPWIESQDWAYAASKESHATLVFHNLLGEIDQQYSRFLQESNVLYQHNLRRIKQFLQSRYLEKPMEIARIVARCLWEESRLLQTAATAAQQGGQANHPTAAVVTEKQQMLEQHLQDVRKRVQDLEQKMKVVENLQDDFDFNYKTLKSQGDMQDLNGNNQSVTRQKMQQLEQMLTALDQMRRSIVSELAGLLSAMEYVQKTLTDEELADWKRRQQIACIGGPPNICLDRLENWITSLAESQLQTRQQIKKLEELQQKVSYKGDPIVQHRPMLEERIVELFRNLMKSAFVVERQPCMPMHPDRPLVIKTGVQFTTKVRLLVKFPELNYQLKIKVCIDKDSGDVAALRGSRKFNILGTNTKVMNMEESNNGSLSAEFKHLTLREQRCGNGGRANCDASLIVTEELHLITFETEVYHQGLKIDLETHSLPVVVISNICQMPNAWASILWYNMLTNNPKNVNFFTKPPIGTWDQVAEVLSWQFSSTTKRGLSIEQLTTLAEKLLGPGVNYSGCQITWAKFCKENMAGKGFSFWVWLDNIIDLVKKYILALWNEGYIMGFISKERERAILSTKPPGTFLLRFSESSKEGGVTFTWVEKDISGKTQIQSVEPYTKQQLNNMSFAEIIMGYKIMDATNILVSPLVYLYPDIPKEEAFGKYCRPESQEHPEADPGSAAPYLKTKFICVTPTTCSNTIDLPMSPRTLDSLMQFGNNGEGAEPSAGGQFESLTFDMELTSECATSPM", "assay": "STAT3 inhibitors, late-stage profile, late-stage follow-up, cell-based, STAT1 panel, qPCR, cytotoxicity, panel member STAT3 Inhibition (AID 2078)"}, "[12]": {"target": "Signal transducer and activator of transcription 1-alpha/beta (Homo sapiens, UniProt P42224)", "sequence (P42224 whole entry)": "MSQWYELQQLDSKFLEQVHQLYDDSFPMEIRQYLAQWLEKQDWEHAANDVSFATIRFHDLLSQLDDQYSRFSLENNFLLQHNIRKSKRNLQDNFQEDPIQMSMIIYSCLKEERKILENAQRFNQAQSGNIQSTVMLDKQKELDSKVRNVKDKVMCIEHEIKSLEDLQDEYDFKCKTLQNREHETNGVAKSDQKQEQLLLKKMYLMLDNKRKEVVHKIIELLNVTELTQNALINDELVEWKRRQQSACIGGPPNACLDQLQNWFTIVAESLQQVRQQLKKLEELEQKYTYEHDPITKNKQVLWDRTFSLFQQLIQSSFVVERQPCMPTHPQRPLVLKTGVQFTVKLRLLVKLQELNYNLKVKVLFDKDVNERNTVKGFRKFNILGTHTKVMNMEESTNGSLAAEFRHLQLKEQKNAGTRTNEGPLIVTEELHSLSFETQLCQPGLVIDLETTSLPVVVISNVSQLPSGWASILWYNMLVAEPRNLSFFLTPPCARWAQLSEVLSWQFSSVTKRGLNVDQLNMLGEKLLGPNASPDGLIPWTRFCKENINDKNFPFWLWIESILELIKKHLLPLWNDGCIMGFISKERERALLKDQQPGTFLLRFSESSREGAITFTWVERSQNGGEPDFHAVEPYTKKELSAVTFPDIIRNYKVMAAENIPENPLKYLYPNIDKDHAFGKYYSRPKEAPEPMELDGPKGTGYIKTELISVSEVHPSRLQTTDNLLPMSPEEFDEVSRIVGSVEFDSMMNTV", "assay": "STAT3 inhibitors, late-stage profile, late-stage follow-up, cell-based, STAT1 panel, qPCR, cytotoxicity, panel member STAT1 Inhibition (AID 2078)"}}, "note": "Calls of active or inactive are those of the source."}
{"smiles": "CCOC(=O)C1C(c2ccc3c(c2)OCO3)NC(=O)NC1(O)C(F)(F)F", "note": "(stereo unspecified)", "values": [{"measurement": "EC50", "setting": "Ion channel NompC", "value": "> 29.9 µM (inactive)"}, {"measurement": "EC50", "setting": "Mucolipin-3", "value": "> 29.9 µM (not active)"}]}
{"smiles": "O=C1Nc2ccccc2C12Nc1ccccc1S2", "note": "(stereo unspecified)", "values": [{"measurement": "IC50", "setting": "[1]", "value": "8.95 µM (active)"}, {"measurement": "IC50", "setting": "[2]", "value": "28.2 µM (active)"}]}
{"smiles": "COC(=O)CSc1nc(N)c2c3c(sc2n1)C(c1ccccc1)SC(c1ccccc1)C3", "note": "(stereo unspecified)", "values": [{"measurement": "AC50", "setting": "CAAX prenyl protease 2", "value": "13.8 µM (active)"}, {"measurement": "EC50", "setting": "BJ [3]", "value": "8.88 µM (inconclusive)"}, {"measurement": "EC50", "setting": "Protein RecA", "value": "> 380 µM (inactive)"}, {"measurement": "AC50", "setting": "[4]", "value": "> 380 µM (inactive)"}, {"measurement": "EC50", "setting": "BJ [5]", "value": "17.1 µM (inconclusive)"}, {"measurement": "EC50", "setting": "BJ [6]", "value": "> 150 µM (inconclusive)"}, {"measurement": "EC50", "setting": "[7]", "value": "14.2 µM (active)"}, {"measurement": "CC50", "setting": "[8]", "value": "> 50 µM (active)"}, {"measurement": "EC50", "setting": "[9]", "value": "14.4 µM (active)"}, {"measurement": "EC50", "setting": "[10]", "value": "11.4 µM (active)"}]}
{"smiles": "Cc1sc2ncnc(N3CCC(C(=O)c4ccccc4)CC3)c2c1C", "values": [{"measurement": "IC50", "setting": "[11]", "value": "5.21 µM (active)"}, {"measurement": "IC50", "setting": "[12]", "value": "> 55.7 µM (inactive)"}]}
